The test system of this assay is BDF1 mice, B16 melanoma ip, median survival T/C. Put plainly: NCI In Vivo Anticancer Drug Screen. Data for tumor model B16 Melanoma (intraperitoneal) in B6D2F1 (BDF1) mice. The following applies: endpoint: median survival time, higher = longer survival. The essentials:
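Survival or tumor size is measured after treatment of tumor-bearing mice and normalised to the vehicle-treated control group.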

Setting [1] is: dose: 100.0 mg/kg/injection, schedule: Q01DX009 (ip), vehicle: Klucel (hydroxypropylcellulose) (HPC).
Setting [2] is: dose: 200.0 mg/kg/injection, schedule: Q01DX009 (ip), vehicle: Klucel (hydroxypropylcellulose) (HPC).
The mark [3] stands for this setting: dose: 50.0 mg/kg/injection, schedule: Q01DX009 (ip), vehicle: saline with Tween-80.
Setting [4] is: dose: 100.0 mg/kg/injection, schedule: Q01DX009 (ip), vehicle: saline with Tween-80.
Setting [5] is: dose: 25.0 mg/kg/injection, schedule: Q01DX009 (ip), vehicle: saline with Tween-80.
Setting [6] is: dose: 50.0 mg/kg/injection, schedule: Q04DX003 (ip), vehicle: saline with Tween-80.
Where [7] appears, read: dose: 100.0 mg/kg/injection, schedule: Q04DX003 (ip), vehicle: saline with Tween-80.
The mark [8] stands for this setting: dose: 100.0 mg/kg/injection, schedule: Q04DX003 (ip), vehicle: Klucel (hydroxypropylcellulose) (HPC).
The mark [9] stands for this setting: dose: 25.0 mg/kg/injection, schedule: Q01DX009 (ip), vehicle: saline.
The mark [10] stands for this setting: dose: 50.0 mg/kg/injection, schedule: Q01DX009 (ip), vehicle: saline.
The mark [11] stands for this setting: dose: 100.0 mg/kg/injection, schedule: Q01DX009 (ip), vehicle: saline.
Setting [12] is: dose: 200.0 mg/kg/injection, schedule: Q01DX009 (ip), vehicle: saline with Tween-80.

Among the data in PubChem BioAssay AID192 (DTP/NCI, 2004) are T/C values, retold here.

Where “and” joins values, the source holds several entries; their conditions need not be identical. Equal entries are not always repeated. Inconclusive results and toxic doses are left out.

Take `CC(=O)[C@]1(O)Cc2c(O)c3c(c(O)c2[C@@H](OC2CC(N)C(O)C(C)O2)C1)C(=O)c1c(O)cccc1C3=O` (some centres not stated): the T/C is 105 % of control (dose: 0.04 mg/kg/injection, schedule: Q01DX001 (ip), vehicle: water); 113 % of control and 124 % of control (dose: 0.08 mg/kg/injection, schedule: Q01DX001 (ip), vehicle: water); 124 % of control (dose: 0.16 mg/kg/injection, schedule: Q01DX001 (ip), vehicle: water); 124 % of control (dose: 0.38 mg/kg/injection, schedule: Q01DX001 (ip), vehicle: water).

Turning to `OCC1OC(n2cnc3cncnc32)C(O)C1O` (configuration not stated), the T/C (dose: 12.5 mg/kg/injection, schedule: Q01DX009 (ip), vehicle: saline) is 115 % of control.

On to `Cc1cccc(C)c1NC(=O)C(Cl)c1ccccc1` (configuration not stated), for which the T/C is 103 % of control under setting [1]; 93 % of control under setting [2]; 100 % of control (dose: 400.0 mg/kg/injection, schedule: Q01DX009 (ip), vehicle: Klucel (hydroxypropylcellulose) (HPC)).

Turning to `O=[N+]([O-])c1ccc(Cl)c([N+](=O)[O-])c1`, the T/C by setting is: (dose: 5.0 mg/kg/injection, schedule: Q01DX009 (ip), vehicle: saline with Tween-80) 100 % of control and 112 % of control; (dose: 10.0 mg/kg/injection, schedule: Q01DX009 (ip), vehicle: saline with Tween-80) 94 % of control and 99 % of control; (dose: 20.0 mg/kg/injection, schedule: Q01DX009 (ip), vehicle: saline with Tween-80) 99 % of control and 102 % of control; (dose: 40.0 mg/kg/injection, schedule: Q01DX009 (ip), vehicle: saline with Tween-80) 98 % of control and 107 % of control; (dose: 80.0 mg/kg/injection, schedule: Q01DX009 (ip), vehicle: saline with Tween-80) 100 % of control and 108 % of control.

Regarding `Cc1ccc(C)c(C(O)C2CC2)c1` (configuration not stated), the T/C was 104 % of control under setting [3] and 100 % of control under setting [4].

With `CCOC(C)C(/C=N/NC(N)=S)=NNC(N)=S` (configuration not stated), the T/C under setting [3] is 90 % of control.

In the case of `CSCCC(C)C`, the T/C under setting [5] is 95 % of control; the T/C under setting [3] is 89 % of control; the T/C under setting [6] is 110 % of control; the T/C under setting [4] was 95 % of control; the T/C under setting [7] was 97 % of control.

As to `CN(C)C=NC1CCC(C(C)(C)C)CC1` (configuration not stated), the T/C was 89 % of control (dose: 6.25 mg/kg/injection, schedule: Q01DX009 (ip), vehicle: Klucel (hydroxypropylcellulose) (HPC)); 93 % of control (dose: 12.5 mg/kg/injection, schedule: Q01DX009 (ip), vehicle: Klucel (hydroxypropylcellulose) (HPC)); 86 % of control (dose: 25.0 mg/kg/injection, schedule: Q01DX009 (ip), vehicle: Klucel (hydroxypropylcellulose) (HPC)).

Regarding `CCCCCCCCCCCCCCP(I)(N(C)C)(N(C)C)N(C)C`, the T/C was 90 % of control (dose: 0.1 mg/kg/injection, schedule: Q01DX009 (ip), vehicle: saline with Tween-80); 94 % of control (dose: 0.2 mg/kg/injection, schedule: Q01DX009 (ip), vehicle: saline with Tween-80); 88 % of control (dose: 0.38 mg/kg/injection, schedule: Q01DX009 (ip), vehicle: saline with Tween-80); 93 % of control (dose: 0.4 mg/kg/injection, schedule: Q01DX009 (ip), vehicle: saline with Tween-80).

Consider `COc1ccc(C(C)=O)cc1N`, for which the T/C by setting is: under setting [8], 100 % of control; (dose: 200.0 mg/kg/injection, schedule: Q04DX003 (ip), vehicle: Klucel (hydroxypropylcellulose) (HPC)) 97 % of control; (dose: 400.0 mg/kg/injection, schedule: Q04DX003 (ip), vehicle: Klucel (hydroxypropylcellulose) (HPC)) 95 % of control.

Consider `COC(=O)c1n[nH]c(C(C)C)c1N=NN(C)C`, for which the T/C was 110 % of control (dose: 37.5 mg/kg/injection, schedule: Q01DX009 (ip), vehicle: saline with Tween-80) and 115 % of control (dose: 75.0 mg/kg/injection, schedule: Q01DX009 (ip), vehicle: saline with Tween-80).

On to `NC(CC(=O)O)C(=O)OCc1ccccc1` (configuration not stated), for which the T/C runs as follows: under setting [9], 95 % of control; under setting [10], 108 % of control; under setting [11], 114 % of control; (dose: 200.0 mg/kg/injection, schedule: Q01DX009 (ip), vehicle: saline) 105 % of control.

`Cc1c(Cl)cccc1NC(=O)c1cccc([N+](=O)[O-])c1`: the T/C reads like this: (dose: 75.0 mg/kg/injection, schedule: Q01DX009 (ip), vehicle: Klucel (hydroxypropylcellulose) (HPC)) 95 % of control; (dose: 150.0 mg/kg/injection, schedule: Q01DX009 (ip), vehicle: Klucel (hydroxypropylcellulose) (HPC)) 87 % of control; (dose: 300.0 mg/kg/injection, schedule: Q01DX009 (ip), vehicle: Klucel (hydroxypropylcellulose) (HPC)) 91 % of control.

As for `CN=C1N[N+]2=CCCCC2S1` (configuration not stated), the T/C by setting is: (dose: 40.0 mg/kg/injection, schedule: Q01DX011 (ip), vehicle: saline) 104 % of control; (dose: 60.0 mg/kg/injection, schedule: Q01DX011 (ip), vehicle: saline) 112 % of control; (dose: 80.0 mg/kg/injection, schedule: Q01DX011 (ip), vehicle: saline) 111 % of control.

Consider `CN1CCC(=C2c3ccccc3C=Cc3ccccc32)CC1`, for which the T/C is, setting by setting: (dose: 3.12 mg/kg/injection, schedule: Q01DX009 (ip), vehicle: saline) 110 % of control; (dose: 6.25 mg/kg/injection, schedule: Q01DX009 (ip), vehicle: saline) 102 % of control; under setting [9], 105 % of control; under setting [10], 105 % of control.

Consider `Cc1ccc(C(=O)CCl)c(C)c1`, for which the T/C is, setting by setting: (dose: 12.5 mg/kg/injection, schedule: Q01DX009 (ip), vehicle: saline with Tween-80) 90 % of control; under setting [5], 92 % of control; under setting [3], 95 % of control.

On to `CCOc1ccc2nc(Cl)sc2c1`, for which the T/C under setting [8] is 105 % of control.

Regarding `Cc1cccc(/C=N\OCCc2ccccc2)n1`, the T/C by setting is: under setting [4], 97 % of control; under setting [12], 93 % of control.

For the compound `O=CNc1cc2ccccc2c2ccc3ccccc3c12`, the T/C was 104 % of control (dose: 50.0 mg/kg/injection, schedule: Q04DX003 (ip), vehicle: Klucel (hydroxypropylcellulose) (HPC)) and 100 % of control under setting [8].

In the case of `C[CH2][Pb]([CH2]C)([CH2]C)[O]C(=O)CBr`, the T/C runs as follows: (dose: 0.75 mg/kg/injection, schedule: Q01DX009 (ip), vehicle: Klucel (hydroxypropylcellulose) (HPC)) 100 % of control; (dose: 1.5 mg/kg/injection, schedule: Q01DX009 (ip), vehicle: Klucel (hydroxypropylcellulose) (HPC)) 112 % of control; (dose: 3.0 mg/kg/injection, schedule: Q01DX009 (ip), vehicle: Klucel (hydroxypropylcellulose) (HPC)) 105 % of control and 113 % of control.

In the case of `CCSCCNC(=O)[C@@]1(O)[C@H](O)[C@]2(CC)C=CCN3CC[C@@]4(c5cc([C@@]6(OC(C)=O)C[C@H]7C=C(CC)CN(CCc8c6[nH]c6ccccc86)C7)c(OC)cc5N(C)[C@@H]14)[C@@H]32`, the T/C (dose: 0.13 mg/kg/injection, schedule: Q01DX009 (ip), vehicle: water) is 100 % of control; the T/C (dose: 0.25 mg/kg/injection, schedule: Q01DX009 (ip), vehicle: water) is 115 % of control; the T/C (dose: 0.5 mg/kg/injection, schedule: Q01DX009 (ip), vehicle: water) was 120 % of control; the T/C (dose: 1.0 mg/kg/injection, schedule: Q01DX009 (ip), vehicle: water) was 155 % of control; the T/C (dose: 2.0 mg/kg/injection, schedule: Q01DX009 (ip), vehicle: water) is 162 % of control.

For `CC(C)=C(C=O)CCC(C)C`, the T/C is, setting by setting: (dose: 25.0 mg/kg/injection, schedule: Q04DX003 (ip), vehicle: saline with Tween-80) 100 % of control; under setting [6], 95 % of control; under setting [7], 97 % of control and 100 % of control.

As to `O=C(CC(NC(=O)OCc1ccccc1)C(=O)O)OCc1ccccc1` (configuration not stated), the T/C is 93 % of control under setting [5]; 104 % of control under setting [3]; 102 % of control under setting [1]; 102 % of control under setting [4]; 106 % of control under setting [2]; 87 % of control under setting [12].

As for `CC1CC(C)(C)N=C(CCC2CCCC23OCCO3)O1` (configuration not stated), the T/C is 108 % of control under setting [10] and 111 % of control under setting [11].

Consider `N#Cc1cn(C2OC(CO)C(O)C2O)c2ncnc(N)c12` (configuration not stated), for which the T/C was 120 % of control (dose: 0.06 mg/kg/injection, schedule: Q01DX009 (ip), vehicle: saline); 118 % of control (dose: 0.12 mg/kg/injection, schedule: Q01DX009 (ip), vehicle: saline); 105 % of control (dose: 0.25 mg/kg/injection, schedule: Q01DX009 (ip), vehicle: saline).
